Reference: US20260217767A1, “NOVEL A4B7 THIOETHER PEPTIDE DIMER ANTAGONISTS” (Protagonist Therapeutics, Inc., priority 2014, published 2026)
pIC50: −log10 of the molar value. *1 amine or outer side, *2 acyl side, *3 side chain or, on linkers, in order; H or OH if unused. Where a SMILES comes first, the peptide text is derived from it. Bridges are numbered along the chain shown (N, C = ends). Roman numbers before positions name the chains, in order. [ ]: non-standard residue; d: D form. Diglycolyl = O=C(COCC(=O)[*:2])[*:1]; NMeR = CN[C@@H](CCCNC(=N)N)C(=O)O; Tic = O=C(O)[C@@H]1Cc2ccccc2CN1; X1 = O=C(c1ccccc1C[*:2])[*:1]

Columns and labels:
[1] = Simulated Gastric Fluid (SGF) Stability Assay; type: in vitro ADME; settings: pig, pH 2, 37° C., dimers, Table 7; for half-life at 20 μM: simulated gastric fluid (SGF) with porcine pepsin
Summary of the method: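 Peptides at 20 μM final were incubated at 37° C with shaking in simulated gastric fluid (NaCl, porcine pepsin, HCl; pH 2). Samples were taken at 0, 15, 30 and 60 min, quenched in acetonitrile/0.1% formic acid and quantified by LC-MS/MS against an internal standard relative to time 0. Half-life came from first-order exponential decay fit.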

Jurkat E6.1 cells = Jurkat E6.1 cells (Homo sapiens, UniProt P05556+P13612); experiment: α4β1-VCAM Cell Adhesion Assay; type: cell-based; settings: thioether peptide dimers, Table 7; read-out: Cell Adhesion A4B1
Jurkat E6.1 cells, sequence (P13612 34-1032): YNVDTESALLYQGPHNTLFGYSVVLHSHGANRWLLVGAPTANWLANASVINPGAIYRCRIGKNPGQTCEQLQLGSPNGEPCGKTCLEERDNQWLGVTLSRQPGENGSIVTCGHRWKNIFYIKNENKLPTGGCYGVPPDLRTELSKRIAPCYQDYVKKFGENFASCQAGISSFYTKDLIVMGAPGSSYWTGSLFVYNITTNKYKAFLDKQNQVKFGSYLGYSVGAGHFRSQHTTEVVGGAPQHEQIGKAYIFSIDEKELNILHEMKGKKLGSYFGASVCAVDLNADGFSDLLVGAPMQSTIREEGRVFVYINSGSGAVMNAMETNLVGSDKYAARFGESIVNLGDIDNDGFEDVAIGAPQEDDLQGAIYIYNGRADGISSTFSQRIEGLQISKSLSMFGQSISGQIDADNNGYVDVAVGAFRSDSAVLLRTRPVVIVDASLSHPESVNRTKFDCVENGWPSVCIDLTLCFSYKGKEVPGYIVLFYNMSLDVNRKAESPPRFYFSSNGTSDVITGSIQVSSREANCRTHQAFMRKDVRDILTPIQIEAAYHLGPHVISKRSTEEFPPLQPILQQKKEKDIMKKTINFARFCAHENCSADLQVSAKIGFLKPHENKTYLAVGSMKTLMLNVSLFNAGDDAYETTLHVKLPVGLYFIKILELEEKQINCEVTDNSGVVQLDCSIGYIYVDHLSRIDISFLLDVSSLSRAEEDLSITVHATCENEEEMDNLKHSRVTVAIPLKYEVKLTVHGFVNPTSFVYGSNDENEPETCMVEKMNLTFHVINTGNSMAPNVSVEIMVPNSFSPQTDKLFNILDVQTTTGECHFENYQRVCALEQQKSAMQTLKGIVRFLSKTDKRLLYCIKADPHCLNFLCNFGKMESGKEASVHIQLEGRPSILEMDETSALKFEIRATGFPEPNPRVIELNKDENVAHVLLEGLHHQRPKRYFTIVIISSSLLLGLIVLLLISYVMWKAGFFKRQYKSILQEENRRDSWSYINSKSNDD
Jurkat E6.1 cells, sequence (P05556 21-798): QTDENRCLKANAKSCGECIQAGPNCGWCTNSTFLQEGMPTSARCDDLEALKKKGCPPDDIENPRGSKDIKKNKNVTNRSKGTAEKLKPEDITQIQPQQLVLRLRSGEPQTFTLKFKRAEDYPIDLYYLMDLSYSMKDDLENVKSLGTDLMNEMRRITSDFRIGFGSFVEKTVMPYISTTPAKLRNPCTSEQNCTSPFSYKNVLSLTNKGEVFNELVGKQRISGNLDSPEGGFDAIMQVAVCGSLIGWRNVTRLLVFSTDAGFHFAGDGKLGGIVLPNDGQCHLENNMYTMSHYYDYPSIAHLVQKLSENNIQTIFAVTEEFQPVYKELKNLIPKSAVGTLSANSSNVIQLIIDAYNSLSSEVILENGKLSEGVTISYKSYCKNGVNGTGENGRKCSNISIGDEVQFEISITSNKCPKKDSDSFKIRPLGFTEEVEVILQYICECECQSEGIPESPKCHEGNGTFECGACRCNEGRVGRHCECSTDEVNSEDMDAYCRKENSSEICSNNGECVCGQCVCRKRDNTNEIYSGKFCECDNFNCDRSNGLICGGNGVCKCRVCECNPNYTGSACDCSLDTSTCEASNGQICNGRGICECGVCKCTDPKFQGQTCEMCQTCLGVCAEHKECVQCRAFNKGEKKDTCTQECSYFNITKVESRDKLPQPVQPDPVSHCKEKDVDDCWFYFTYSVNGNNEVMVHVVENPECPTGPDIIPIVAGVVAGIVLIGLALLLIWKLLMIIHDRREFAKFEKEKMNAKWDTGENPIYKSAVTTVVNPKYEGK
Summary of the method: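 Jurkat E6.1 cells (200,000 per well, in DMEM with 0.1% BSA and 1 mM MnCl2) allowed to adhere to rh VCAM-1 Fc-coated wells with serially diluted peptide for 30-45 min at 37° C. After washing, bound cells quantified by MTT absorbance at 570 nm, cell-free background subtracted, for dose response.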

α4β1 = molecular target: T1, α4β1 (Homo sapiens, UniProt P05556+P13612); experiment: α4β1-VCAM Competition ELISA; type: binding; settings: thioether peptide dimers, Table 7; read-out: ELISA A4B1
T1 construct: purchased R&D Systems 5668-A4
T1 sequence (P13612 34-977 limits assumed): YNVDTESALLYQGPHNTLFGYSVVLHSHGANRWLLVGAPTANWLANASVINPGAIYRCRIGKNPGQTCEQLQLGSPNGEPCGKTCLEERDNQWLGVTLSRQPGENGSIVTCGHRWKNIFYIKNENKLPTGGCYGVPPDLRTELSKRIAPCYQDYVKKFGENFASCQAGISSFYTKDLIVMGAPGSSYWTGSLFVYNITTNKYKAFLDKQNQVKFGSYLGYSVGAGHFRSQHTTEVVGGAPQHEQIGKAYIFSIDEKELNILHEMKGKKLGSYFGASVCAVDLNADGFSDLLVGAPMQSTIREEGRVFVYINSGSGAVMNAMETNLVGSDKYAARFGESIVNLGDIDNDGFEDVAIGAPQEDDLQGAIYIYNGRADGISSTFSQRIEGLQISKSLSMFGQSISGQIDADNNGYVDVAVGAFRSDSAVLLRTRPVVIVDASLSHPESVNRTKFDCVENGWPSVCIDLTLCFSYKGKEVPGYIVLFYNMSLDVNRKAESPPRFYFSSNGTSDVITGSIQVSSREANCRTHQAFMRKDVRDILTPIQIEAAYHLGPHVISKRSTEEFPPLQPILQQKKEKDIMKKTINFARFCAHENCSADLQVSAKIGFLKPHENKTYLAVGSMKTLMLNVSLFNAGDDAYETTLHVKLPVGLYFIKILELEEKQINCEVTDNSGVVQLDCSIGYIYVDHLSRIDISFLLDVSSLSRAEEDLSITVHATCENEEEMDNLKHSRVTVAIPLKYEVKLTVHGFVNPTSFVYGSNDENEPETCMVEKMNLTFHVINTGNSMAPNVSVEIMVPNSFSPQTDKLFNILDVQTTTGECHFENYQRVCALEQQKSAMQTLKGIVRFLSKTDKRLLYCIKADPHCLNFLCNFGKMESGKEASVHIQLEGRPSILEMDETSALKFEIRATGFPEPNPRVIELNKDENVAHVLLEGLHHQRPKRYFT
T1 sequence (P05556 21-728 limits assumed): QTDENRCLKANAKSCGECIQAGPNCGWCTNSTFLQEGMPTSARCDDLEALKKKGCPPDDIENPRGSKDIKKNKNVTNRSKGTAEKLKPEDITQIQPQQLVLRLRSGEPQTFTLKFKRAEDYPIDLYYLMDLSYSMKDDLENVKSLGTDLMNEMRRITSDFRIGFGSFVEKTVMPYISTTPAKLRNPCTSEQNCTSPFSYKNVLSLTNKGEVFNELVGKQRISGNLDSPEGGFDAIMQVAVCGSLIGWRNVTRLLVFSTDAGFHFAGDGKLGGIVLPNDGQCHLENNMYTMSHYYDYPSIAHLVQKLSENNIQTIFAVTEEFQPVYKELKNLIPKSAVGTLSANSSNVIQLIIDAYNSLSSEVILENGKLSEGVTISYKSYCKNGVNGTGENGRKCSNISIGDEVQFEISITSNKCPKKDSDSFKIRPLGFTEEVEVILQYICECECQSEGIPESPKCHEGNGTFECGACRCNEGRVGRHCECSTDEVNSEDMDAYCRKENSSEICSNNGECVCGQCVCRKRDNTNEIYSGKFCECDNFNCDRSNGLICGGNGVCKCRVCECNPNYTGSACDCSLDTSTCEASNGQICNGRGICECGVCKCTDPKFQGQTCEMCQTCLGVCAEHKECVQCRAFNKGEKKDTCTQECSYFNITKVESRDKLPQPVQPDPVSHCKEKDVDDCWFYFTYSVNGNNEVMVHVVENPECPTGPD
Summary of the method: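 rh VCAM-1-Fc coated plates; α4β1 (final 60 nM) and peptide (final 100 μM) incubated 2 h at 37° C. in 50 mM Tris-HCl pH 7.6, 100 mM NaCl, 1 mM MnCl2 or MgCl2, 0.05% Tween-20. Bound integrin detected with anti-CD49d 9F10 and HRP anti-mouse IgG, TMB read at 450 nm.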

SMILES	half-life at 20 μM [1]	pIC50 (Jurkat E6.1 cells)	pIC50 (α4β1)	half-life ([1]; simulated gastric fluid (with porcine pepsin))
CC(C)C[C@@H]1NC(=O)[C@H]([C@@H](C)O)NC(=O)[C@H](CC(=O)O)NC(=O)[C@H](CO)NC(=O)[C@H](CCCNC(=N)N)N(C)C(=O)c2ccccc2CSC(C)(C)[C@@H](C(=O)N[C@@H](Cc2ccc(-c3ccccc3)cc2)C(=O)N[C@H](CCC(=O)O)C(=O)N[C@H](CCCCN)C(N)=O)NC1=O [compound 178] (HELM PEPTIDE1{[meR].S.D.T.L.[Pen].[O=C([C@H](Cc1ccc(-c2ccccc2)cc1)N[*:1])[*:2]].[dE].[dK].[am]}|CHEM1{[O=C(c1ccccc1C[*:2])[*:1]]}$PEPTIDE1,CHEM1,1:R1-1:R1|PEPTIDE1,CHEM1,6:R3-1:R2$$$V2.0)	> 3 h	< 6.00	6.00 to 7.00	
CC(C)C[C@@H]1NC(=O)[C@H]([C@@H](C)O)NC(=O)[C@H](CC(=O)O)NC(=O)[C@H](CO)NC(=O)[C@H](CCCNC(=N)N)N(C)C(=O)c2ccccc2CSC[C@@H](C(=O)N2Cc3ccccc3C[C@H]2C(=O)N[C@H](CCC(=O)O)C(=O)N[C@H](CCCCNC(=O)COCC(=O)NCCCC[C@@H](NC(=O)[C@@H](CCC(=O)O)NC(=O)[C@@H]2Cc3ccccc3CN2C(=O)[C@@H]2CSCc3ccccc3C(=O)N(C)[C@@H](CCCNC(=N)N)C(=O)N[C@@H](CO)C(=O)N[C@@H](CC(=O)O)C(=O)N[C@@H]([C@@H](C)O)C(=O)N[C@@H](CC(C)C)C(=O)N2)C(=O)O)C(=O)O)NC1=O [compound 207] (I: [NMeR]SDTLC[Tic][dE][dK]-OH / II: [NMeR]SDTLC[Tic][dE][dK]-OH; linker I:9-II:9 via Diglycolyl; linker I:N-I:6, II:N-II:6 via X1)		< 4.00	6.00 to 7.00	> 3 h
CC(C)C[C@@H]1NC(=O)[C@H]([C@@H](C)O)NC(=O)[C@H](CC(=O)O)NC(=O)[C@H](CO)NC(=O)[C@H](CCCNC(=N)N)N(C)C(=O)c2ccccc2CSC[C@@H](C(=O)N2Cc3ccccc3C[C@H]2C(=O)N[C@H](CCC(=O)O)C(=O)N[C@H](CCCCNC(=O)COCC(=O)NCCCC[C@@H](NC(=O)[C@@H](CCC(=O)O)NC(=O)[C@@H]2Cc3ccccc3CN2C(=O)[C@@H]2CSCc3ccccc3C(=O)N(C)[C@@H](CCCNC(=N)N)C(=O)N[C@@H](CO)C(=O)N[C@@H](CC(=O)O)C(=O)N[C@@H]([C@@H](C)O)C(=O)N[C@@H](CC(C)C)C(=O)N2)C(N)=O)C(N)=O)NC1=O [compound 184] (I: [NMeR]SDTLC[Tic][dE][dK]-NH2 / II: [NMeR]SDTLC[Tic][dE][dK]-NH2; linker I:9-II:9 via Diglycolyl; linker I:N-I:6, II:N-II:6 via X1)	> 3 h	< 4.00	6.00 to 7.00	
